Experimental findings from PMC7689089, “Regorafenib combined with PD1 blockade increases CD8 T-cell infiltration by inducing CXCL10 expression in hepatocellular carcinoma” (Journal for Immunotherapy of Cancer, 2020) are described below.

Assay [1] has as its system CXCL10. The assay can be described thus: CXCL10/CXCR3 expression in RIL-175 tumor tissue (RNA-seq, ELISA, RNA-Scope ISH, western blot). The format is in vivo, mouse. The settings on record: regorafenib alone at 10 mg/kg and 20 mg/kg; 6 hours after treatment. The protocol: The RNA-Scope assay was performed according to manufacturer’s instructions.[32] Briefly, formaldehyde-fixed and paraffin-embedded human and mouse HCC tissue blocks were cut in 5 µm sections, pretreated for 30 min, following digestion and hybridization at 40°C in a HybEZ oven with both dual labeling probes antimurine CXCR3 probe (Mm-CXCR3; 402511-C2) and CXCL10 (Mm-CXCL10; 408921) or human CXCL10 (Hs-CXCL10; 311851), all from Advanced Cell Diagnostics. Counterstaining was performed using hematoxylin for 10 s.
(§1) (A) Changes induced by combination of regorafenib (10 mg/kg) with anti-PD1 antibody in immune-related pathways from the gene set enrichment analysis (GSEA) using curated gene sets in RIL-175 HCC model (see also online supplemental dataset S1 and figure S2E). (B, C) Changes induced by combination of regorafenib (10 mg/kg) with anti-PD1 antibody in STAT3 and STAT1 activity (B), showing an increased ratio of phosphorylated (p)-STAT1/p-STAT3 (normalized to total STAT1 and STAT3, respectively) by western blot analysis of whole RIL-175 HCC tissue (C) (n=4 mice). […] (J, K) Combination therapy increases CXCL10 protein expression in whole RIL-175 tumor tissue 6 hours and 12 hours after in vivo when regorafenib treatment was used at doses of 10 mg/kg (R10) and 20 mg/kg (R20) (n=3) by western blot analysis (J); quantitative data of CXCL10/β-actin ratios are shown in (K). […]

Assay [2] relates to RIL-175 cells. The assay can be described thus: STAT1/STAT3 activity in RIL-175 cells in vitro (western blot). The class given is cell-based, mouse. The settings on record: 1 µM in vitro. The protocol: as §1, with “mice). (D) Treatment with regorafenib increases CXCL10 expression by RIL-175 HCC cells in vitro after 36 hours, in a dose-dependent manner (n=6). Culture medium alone was used as a negative control (NC).” for “mice).”
(§2) Flow cytometry analysis. […] After preparation, cells were suspended in 2ml of PBS with 2% BSA, then counted using a cell counting plate (Kova slide) (if the final concentration of cell exceeded 10^7 cells/ml, a dilution factor was applied). […]
On the technique in general: Immunoblotting shows a protein as a band on a membrane.

Assay [3] concerns STAT3. The assay can be described thus: STAT1/STAT3 phosphorylation in RIL-175 HCC tissue. The class given is in vivo, mouse. The settings on record: samples of the PK study. The protocol: as §1, with “mice). (D) Treatment with regorafenib increases CXCL10 expression by RIL-175 HCC cells in vitro after 36 hours, in a dose-dependent manner (n=6). Culture medium alone was used as a negative control (NC).” for “mice).”
as §2

The subject of assay [4] is CXCL10. In words: Plasma CXCL10 in patients before and after 2 weeks of regorafenib. The format is in vivo, human. The conditions noted are these: patients with advanced HCC (n=1) and AML (n=7); after 2 weeks of treatment.
Source text: Formalin-fixed paraffin-embedded HCC tissue and blood samples were obtained with informed consent from a published cohort of deidentified patients who underwent liver resection at the department of Surgery at Fundeni Clinical Institute, Bucharest, Romania.[31] Furthermore, we collected blood samples with informed consent from patients treated by regorafenib as standard of care (HCC) or in a phase I clinical trial of regorafenib monotherapy in patients with acute myeloid leukemia (AML). Peripheral blood was collected before regorafenib therapy and after 2 weeks of treatment and processed in a Clinical Laboratory Improvement Amendments-certified facility of the Steele Laboratories at MGH. […]
treated by regorafenib as standard of care (HCC) (using the DFCI Protocol No.: 13-416 “Collection of Specimens and Clinical Data for Patients with Known or Suspected Solid Tumors”, PI, Dr. Juric, MGH) or in a phase I clinical trial of regorafenib monotherapy in acute myeloid leukemia (AML) patients (ClinicalTrials.gov Identifier: NCT03042689, PI, Hobbs, MGH). Both protocols have been IRB approved, and written consent was obtained from all patients.
Protein analyses. […]
as §2

For the compound `CNC(=O)c1cc(Oc2ccc(NC(=O)Nc3ccc(Cl)c(C(F)(F)F)c3)c(F)c2)ccn1` [regorafenib], the “CXCL10 protein in whole tumor tissue lysate (western blot)” value in assay [1] is “increased protein levels”. Further, the “STAT1 and STAT3 activity (p-STAT1/p-STAT3) in RIL-175 cells” value in assay [2] is “STAT1 activation and STAT3 inhibition”. In assay [3], the “Phosphorylated (p)STAT3 levels in HCC tissues” value is given as “inhibited”. In assay [4], the “Concentration of plasma CXCL10” value is on record as “increased concentration”.
